One assay addresses human μ opiate receptor (Homo sapiens, UniProt P35372). Put plainly: human μ opiate receptor binding assay with [3H]-naloxone, CHO-K1 membrane preparation. Conditions: for inhibition at 1 µM: read-out: Human ORm Nal inhibition [%]. Here is the method: b) Method for Determining Affinity for the Human μ Opiate Receptor
Receptor affinity for the human μ opiate receptor was determined in a homogeneous batch in microtitre plates. To this end, dilution series of the particular substituted 5-aminomethyl-1H-pyrrole-2-carboxylic acid amide of the general formula I to be tested were incubated at room temperature for 90 minutes in a total volume of 250 μl with a receptor membrane preparation (15-40 μg of protein per 250 μl of incubation batch) of CHO—K1 cells, which express the human μ opiate receptor (RB—HOM receptor membrane preparation from NEN, Zaventem, Belgium) in the presence of 1 nmol/l of the radioactive ligand [^3H]-naloxone (NET719, from NEN, Zaventem, Belgium) and of 1 mg of WGA-SPA beads (wheat germ agglutinin SPA beads from Amersham/Pharmacia, Freiburg, Germany). The incubation buffer used was 50 mmol/l tris-HCl supplemented with 0.05 wt. % of sodium azide and with 0.06 wt. % of bovine serum albumin. 25 μmol/l of naloxone were additionally added to determine nonspecific binding. Once the ninety minute incubation time had elapsed, the microtitre plates were centrifuged off for 20 minutes at 1000 g and the radioactivity measured in a β-Counter (Microbeta-Trilux, from PerkinElmer Wallac, Freiburg, Germany). The percentage displacement of the radioactive ligand from its binding to the human μ opiate receptor was determined at a concentration of the compounds to be tested of 1 μmol/l and stated as percentage inhibition of specific binding. On the basis of the percentage displacement by different concentrations of the compounds to be tested of the general formula I, IC50 inhibition concentrations which bring about 50% displacement of the radioactive ligand were calculated. Ki values for the test substances were obtained by conversion using the Cheng-Prusoff equation.

The target in a further assay is T1, 5-HT uptake (Rattus norvegicus, UniProt P31652).
T1 construct: Synaptosomes from rat brain regions (the “P2” fraction was used) were freshly isolated; from tissue; host or cells: rat brain synaptosomes (P2 fraction), medulla and pons
T1 sequence (P31652 whole entry): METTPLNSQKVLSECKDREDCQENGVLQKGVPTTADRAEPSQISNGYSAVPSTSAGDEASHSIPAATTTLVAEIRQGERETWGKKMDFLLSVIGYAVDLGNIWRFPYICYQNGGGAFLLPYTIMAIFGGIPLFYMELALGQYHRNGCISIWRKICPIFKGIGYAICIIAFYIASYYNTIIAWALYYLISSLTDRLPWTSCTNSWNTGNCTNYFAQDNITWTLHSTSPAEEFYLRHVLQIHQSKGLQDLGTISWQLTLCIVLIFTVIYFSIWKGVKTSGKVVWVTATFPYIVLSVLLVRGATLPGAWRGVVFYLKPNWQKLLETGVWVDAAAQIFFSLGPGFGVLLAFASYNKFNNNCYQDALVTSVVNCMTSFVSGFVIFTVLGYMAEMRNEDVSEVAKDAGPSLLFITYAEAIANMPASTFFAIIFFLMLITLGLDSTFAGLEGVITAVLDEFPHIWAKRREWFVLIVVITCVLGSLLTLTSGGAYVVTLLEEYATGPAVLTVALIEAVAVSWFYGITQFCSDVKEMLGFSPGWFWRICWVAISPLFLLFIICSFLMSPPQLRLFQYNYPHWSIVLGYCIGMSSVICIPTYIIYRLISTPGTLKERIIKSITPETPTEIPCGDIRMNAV
Put plainly: 5-HT uptake inhibition in rat brain synaptosomes (medulla and pons). Conditions: conc. 10 (unit not given), [3H]-5-HT. The format is biochemical. Details: concentration or dose not given beside the values. From the text:
(§1) c) Method for Determining Noradrenalin and the 5-HT Uptake Inhibition:
(§2) Synaptosomes from rat brain regions (the “P2” fraction was used) were freshly isolated for in vitro studies, as described in the publication “The isolation of nerve endings from brain” by E. G. Gray and V. P. Whittaker, J. Anatomy 76, pages 79-88, 1962. The corresponding literature description is hereby introduced as a reference and is deemed to be part of the disclosure.
(§3) The tissue (hypothalamus for the determination of noradrenalin uptake inhibition and medulla and pons for the determination of 5-HT uptake inhibition) was homogenised in ice-cooled 0.32 M sucrose (100 mg of tissue/1 mL) in a glass homogeniser with teflon pestle using five complete up and down strokes at 840 revolutions/minute.
(§4) The homogenate was centrifuged at 4° C. for 10 minutes at 1000 g. After subsequent centrifugation at 17000 g for 55 minutes, the synaptosomes (P2 fraction) were obtained, which were resuspended in 0.32 M glucose (0.5 mL/100 mg of original weight).
(§5) The particular uptake was measured in a 96-well microtitre plate. The volume was 250 μl and the incubation proceeded at room temperature (approx. 20-25° C.) under an O2 atmosphere.
(§6) The incubation time was 7.5 minutes for [^3H]-NA and 5 minutes for [^3H]-5-HT. The 96 samples were then filtered through a Unifilter GF/B® microtitre plate (Packard) and washed with […] of incubated buffer using a “Brabdel MPXRI-96T Cell-Harvester”. The Unifilter GF/B plate was dried for 1 hour at 55° C. The plate was then sealed with a Back seal® (Packard) and 35 μl of scintillation fluid were added per well (Ultima gold®, Packard). After sealing with a top seal® (Packard) and establishment of equilibrium (around 5 hours), radioactivity was determined in a “Trilux 1450 Microbeta” (Wallac).
(§7) The quantity of protein used in the above determination corresponded to the values known from the literature, as for example described in “Protein measurement with the folin phenol reagent”, Lowry et al., J. Biol. Chem., 193, 265-275, 1951. A detailed description of the method may also be found in the literature, for example in M.Ch. Frink, H.-H. Hennies, W. Engelberger, M. Haurand and B. Wilffert (1996) Arzneim.-Forsch./Drug Res. 46 (III), 11, 1029-1036. The corresponding literature descriptions are hereby introduced as a reference and are deemed to be part of the disclosure.

Another assay concerns the target T2, NA transporter (Rattus norvegicus, UniProt Q63380).
T2 construct: Synaptosomes from rat brain regions (the “P2” fraction was used) were freshly isolated; from tissue; host or cells: rat brain synaptosomes (P2 fraction), hypothalamus
Put plainly: noradrenalin uptake inhibition in rat brain synaptosomes (hypothalamus). It counts as biochemical. Further details: concentration or dose not given beside the values. Conditions: conc. 10 (unit not given), [3H]-NA.
Excerpt: as §1, §2, §3, §4, §5, §6
The following characteristics were determined for the NA transporter: NAuptake: Km=0.32±0.11 μM
as §7

The mark [1] stands for this setting: [3H]-naloxone, from IC50 by the Cheng-Prusoff equation, read-out: Human ORm Nal Ki.

Read-outs that look alike come from different tables or passages of the source.

The Ki is a measure of affinity in units of concentration, obtained from inhibition or displacement. By inhibition is commonly meant the change of the read-out against control, counted positive when it falls.

T2 sequence (Q63380 1-617): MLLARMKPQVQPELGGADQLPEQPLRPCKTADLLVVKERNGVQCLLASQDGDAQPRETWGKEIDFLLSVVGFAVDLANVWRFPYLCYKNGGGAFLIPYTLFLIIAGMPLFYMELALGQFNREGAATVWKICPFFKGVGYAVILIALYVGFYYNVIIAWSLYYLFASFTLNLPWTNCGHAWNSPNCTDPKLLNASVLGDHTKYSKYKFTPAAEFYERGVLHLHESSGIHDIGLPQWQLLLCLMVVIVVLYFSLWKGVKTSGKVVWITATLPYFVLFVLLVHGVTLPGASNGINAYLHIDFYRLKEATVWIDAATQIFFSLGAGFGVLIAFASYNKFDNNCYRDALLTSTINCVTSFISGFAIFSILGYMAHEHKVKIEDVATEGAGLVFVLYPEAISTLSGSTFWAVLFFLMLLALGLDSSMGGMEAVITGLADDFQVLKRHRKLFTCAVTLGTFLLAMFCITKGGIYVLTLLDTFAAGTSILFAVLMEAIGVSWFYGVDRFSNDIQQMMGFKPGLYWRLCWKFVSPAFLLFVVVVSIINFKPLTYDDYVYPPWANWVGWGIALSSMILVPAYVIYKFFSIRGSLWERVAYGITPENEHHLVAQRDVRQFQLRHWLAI
Chain of human μ opiate receptor (P35372 whole entry): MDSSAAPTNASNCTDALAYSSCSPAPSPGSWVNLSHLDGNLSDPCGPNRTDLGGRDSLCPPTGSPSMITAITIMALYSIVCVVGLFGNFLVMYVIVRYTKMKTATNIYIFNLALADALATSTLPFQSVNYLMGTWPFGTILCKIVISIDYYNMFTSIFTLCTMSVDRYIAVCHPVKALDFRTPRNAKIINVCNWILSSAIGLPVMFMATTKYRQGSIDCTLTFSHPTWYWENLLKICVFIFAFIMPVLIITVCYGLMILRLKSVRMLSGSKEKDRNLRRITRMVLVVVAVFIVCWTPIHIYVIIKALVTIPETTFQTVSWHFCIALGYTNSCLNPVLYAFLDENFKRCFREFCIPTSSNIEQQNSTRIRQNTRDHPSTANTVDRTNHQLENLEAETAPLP

Turning to `CN(C)C(c1ccc(F)cc1)c1ccc(C(=O)NC2CCCCC2)n1C.Cl` (centres unmarked) [Example 1, 5-[Dimethylamino-(4-fluoro-phenyl)-methyl]-1-methyl-1H-pyrrole-2-carboxylic acid cyclohexylamide hydrochloride], on human μ opiate receptor, the Ki turned out to be 160 nM and the inhibition at 1 µM amounted to 62%. Also, the “5-HT uptake inhibition [%] conc. 10” value at 5-HT uptake is on record as 57%. Besides, the “Noradrenalin uptake inhibition [%] conc. 10” value on NA transporter was determined as 80%.

Turning to `CCCCNC(=O)c1ccc(C(c2ccc(F)cc2)N(C)C)n1C.Cl` (centres unmarked) [Example 2, 5-[Dimethylamino-(4-fluoro-phenyl)-methyl]-1-methyl-1H-pyrrole-2-carboxylic acid butylamide hydrochloride], the Ki at human μ opiate receptor (setting [1]) came out at 360 nM. The inhibition at 1 µM at human μ opiate receptor came to 49%. Further, the “5-HT uptake inhibition [%] conc. 10” value on 5-HT uptake is on record as 52%. For the same molecule, on NA transporter, the “Noradrenalin uptake inhibition [%] conc. 10” value amounted to 72%.

Take `CN(C)C(c1ccc(F)cc1)c1ccc(C(=O)N2CCCC2)n1C.Cl` (centres unmarked) [Example 3, {5-[Dimethylamino-(4-fluoro-phenyl)-methyl]-1-methyl-1H-pyrrol-2-yl}-pyrrolidin-1-yl-methanone hydrochloride]: the “Noradrenalin uptake inhibition [%] conc. 10” value at NA transporter came to 38%.

As to `CN(C)C(c1ccc(Br)cc1)c1ccc(C(=O)NC2CCCCC2)n1C.Cl` (centres unmarked) [Example 4, 5-[Dimethylamino-(4-bromo-phenyl)-methyl]-1-methyl-1H-pyrrole-2-carboxylic acid cyclohexylamide hydrochloride], at human μ opiate receptor (setting [1]), the Ki was determined as 790 nM. In addition, the inhibition at 1 µM at human μ opiate receptor worked out at 80%. Besides, the “5-HT uptake inhibition [%] conc. 10” value on 5-HT uptake came to 72%. Further, at NA transporter, the “Noradrenalin uptake inhibition [%] conc. 10” value is listed as 93%.

As for `CCCCNC(=O)c1ccc(C(c2ccc(Br)cc2)N(C)C)n1C.Cl` (centres unmarked) [Example 5, 5-[Dimethylamino-(4-bromo-phenyl)-methyl]-1-methyl-1H-pyrrole-2-carboxylic acid butylamide hydrochloride], the inhibition at 1 µM at human μ opiate receptor came to 62%. The “5-HT uptake inhibition [%] conc. 10” value on 5-HT uptake is 57%. Also, the “Noradrenalin uptake inhibition [%] conc. 10” value at NA transporter stood at 86%.

`CN(C)C(c1ccc(Br)cc1)c1ccc(C(=O)N2CCCC2)n1C.Cl` (centres unmarked) [Example 6, {5-[(4-Bromo-phenyl)-dimethylamino-methyl]-1-methyl-1H-pyrrol-2-yl)-pyrrolidin-1-yl-methanone hydrochloride]: at 5-HT uptake, the “5-HT uptake inhibition [%] conc. 10” value amounted to 51%. In addition, the “Noradrenalin uptake inhibition [%] conc. 10” value on NA transporter stood at 83%.

As for `CN(C)C(c1ccc(Br)cc1)c1ccc(C(=O)NCCc2ccccc2)n1C.Cl` (centres unmarked) [Example 7, 5-[(4-Bromo-phenyl)-dimethylamino-methyl]-1-methyl-1H-pyrrole-2-carboxylic acid phenethylamide hydrochloride], on human μ opiate receptor, affinity was put at a Ki of 1000 nM and the inhibition at 1 µM was 65%. Moreover, the “5-HT uptake inhibition [%] conc. 10” value on 5-HT uptake was 93%. The “Noradrenalin uptake inhibition [%] conc. 10” value at NA transporter is listed as 95%.

Regarding `CN(C)C(c1ccc(Br)cc1)c1ccc(C(=O)N2CCOCC2)n1C.Cl` (centres unmarked) [Example 8, {5-[(4-Bromo-phenyl)-dimethylamino-methyl]-1-methyl-1H-pyrrol-2-yl}-morpholin-4-yl-methanone hydrochloride], the “5-HT uptake inhibition [%] conc. 10” value at 5-HT uptake was 79%. Further, the “Noradrenalin uptake inhibition [%] conc. 10” value at NA transporter turned out to be 43%.

As for `CN(C)C(c1ccccc1)c1ccc(C(=O)NC2CCCCC2)n1C.Cl` (centres unmarked) [Example 9, 5-(Dimethylamino-phenyl-methyl)-1-methyl-1H-pyrrole-2-carboxylic acid cyclohexylamide hydrochloride], the inhibition at 1 µM on human μ opiate receptor is 76%. Moreover, the “Noradrenalin uptake inhibition [%] conc. 10” value on NA transporter is on record as 70%.

As to `CCCCNC(=O)c1ccc(C(c2ccccc2)N(C)C)n1C.Cl` (centres unmarked) [Example 10, 5-(Dimethylamino-phenyl-methyl)-1-methyl-1H-pyrrole-2-carboxylic acid butylamide hydrochloride], at NA transporter, the “Noradrenalin uptake inhibition [%] conc. 10” value amounted to 52%.

Take `CN(C)C(c1ccccc1)c1ccc(C(=O)N2CCCC2)n1C.Cl` (centres unmarked) [Example 11, [5-(Dimethylamino-phenyl-methyl)-1-methyl-1H-pyrrol-2-yl]-pyrrolidin-1-yl-methanone hydrochloride]: on human μ opiate receptor, the inhibition at 1 µM amounted to 33%. The “5-HT uptake inhibition [%] conc. 10” value on 5-HT uptake came out at 54%.

Values taken from US7229991B2, “Substituted 5-aminomethyl-1H-pyrrole-2-carboxamides” (priority 2002, dated 2007).
